Experimental data: the NIST ThermoML archive (doi:10.1021/je0497496)
“And” between values parts separate entries of the source, which are not always exact repeats. Equal values may be shown once.

Settings: for mass density: buoyancy; for vapor or sublimation pressure: Closed cell (Static) method

O [water]
Liquid
Settings	mass density
273.62 K, 105.71 kPa	999.859 kg/m3
273.62 K, 1225.7 kPa	1000.42 kg/m3
273.63 K, 105.71 kPa	999.82 kg/m3
273.63 K, 2307.2 kPa	1001.02 kg/m3
273.63 K, 3781.6 kPa	1001.68 kg/m3
273.63 K, 4990.1 kPa	1002.27 kg/m3
292.94 K, 1063.5 kPa	998.673 kg/m3
292.94 K, 2097.6 kPa	999.18 kg/m3
292.94 K, 3109.3 kPa	999.633 kg/m3
292.94 K, 4139.9 kPa	1000.06 kg/m3 and 1000.08 kg/m3
292.95 K, 109.3 kPa	998.268 kg/m3
302.91 K, 110.01 kPa	995.77 kg/m3
302.91 K, 2049.8 kPa	996.571 kg/m3
302.91 K, 4030.1 kPa	997.451 kg/m3
302.92 K, 1005.9 kPa	996.106 kg/m3
312.96 K, 345.05 kPa	992.42 kg/m3
312.96 K, 1195.1 kPa	992.749 kg/m3
312.96 K, 2093.1 kPa	993.139 kg/m3
312.96 K, 3064.5 kPa	993.609 kg/m3
312.96 K, 4141.2 kPa	994.071 kg/m3

N#N [nitrogen]
Fluid (supercritical or subcritical phases)
Settings	mass density [kg/m3]
233.02 K, 506.32 kPa	7.36302
233.02 K, 1007.1 kPa	14.7253
233.02 K, 2000.9 kPa	29.5563
233.02 K, 3001.4 kPa	44.779
233.02 K, 5030.2 kPa	76.3292
233.02 K, 5501 kPa	83.7756
233.03 K, 506.34 kPa	7.36678
233.03 K, 4002.6 kPa	60.2496
253.36 K, 3010.1 kPa	40.8167
253.36 K, 5651.9 kPa	77.5333
253.37 K, 158.12 kPa	2.1053
253.37 K, 1025.2 kPa	13.7338
253.37 K, 5051.9 kPa	69.1481
253.38 K, 158.09 kPa	2.10982
253.38 K, 2061.7 kPa	27.8018
253.38 K, 4007.1 kPa	54.5977
273.05 K, 1000.4 kPa	12.3984
273.06 K, 500.06 kPa	6.18643
273.06 K, 500.07 kPa	6.19019
273.06 K, 500.09 kPa	6.18538
273.06 K, 2000 kPa	24.878
273.06 K, 3000.1 kPa	37.4313
273.06 K, 4000 kPa	50.0451
273.06 K, 5000.4 kPa	62.6679
273.06 K, 5500 kPa	68.9746
293.02 K, 5015.1 kPa	58.0251
293.03 K, 109.97 kPa	1.26716
293.03 K, 1037 kPa	11.9492
293.03 K, 2014 kPa	23.2508
293.03 K, 3106.2 kPa	35.9063
293.03 K, 3996.5 kPa	46.2267
293.03 K, 5611.3 kPa	64.8959
293.04 K, 109.35 kPa	1.25784
313.12 K, 508.1 kPa	5.46882
313.12 K, 508.11 kPa	5.46814
313.12 K, 1000.3 kPa	10.7709
313.12 K, 1999.8 kPa	21.5387
313.12 K, 3999.9 kPa	43.0379
313.12 K, 5000.1 kPa	53.7535
313.13 K, 2999.7 kPa	32.2955
313.13 K, 5500 kPa	59.0903
333.12 K, 147.29 kPa	1.48909
333.12 K, 147.34 kPa	1.48309
333.12 K, 1049 kPa	10.6026
333.12 K, 2020.6 kPa	20.4085
333.12 K, 3039 kPa	30.6553
333.12 K, 4001.5 kPa	40.3032
333.12 K, 5029.1 kPa	50.5504
333.12 K, 5511.3 kPa	55.3242
353.31 K, 500.05 kPa	4.76148
353.31 K, 500.09 kPa	4.76373
353.31 K, 1001.8 kPa	9.53854
353.31 K, 4000.7 kPa	37.8636
353.32 K, 500.08 kPa	4.76448
353.32 K, 2000 kPa	19.0116
353.32 K, 3001.8 kPa	28.4762
353.32 K, 4999.9 kPa	47.189
353.32 K, 5500 kPa	51.8318

O=C=O [carbon dioxide]
Fluid (supercritical or subcritical phases)
Settings	mass density
233.06 K, 500.05 kPa	12.0703 kg/m3
233.06 K, 799.98 kPa	20.1488 kg/m3
233.07 K, 105.91 kPa	2.43371 kg/m3 and 2.42701 kg/m3
233.07 K, 300.07 kPa	7.05798 kg/m3
243 K, 1000.7 kPa	24.4253 kg/m3
243.01 K, 300.03 kPa	6.73594 kg/m3
243.01 K, 500.04 kPa	11.476 kg/m3
243.01 K, 800 kPa	19.0248 kg/m3
243.01 K, 1200.7 kPa	30.1422 kg/m3
243.02 K, 100.02 kPa	2.20055 kg/m3
253.21 K, 500.06 kPa	10.9367 kg/m3
253.21 K, 1500.7 kPa	36.7146 kg/m3
253.22 K, 100.07 kPa	2.116 kg/m3
253.22 K, 100.08 kPa	2.11111 kg/m3
253.22 K, 1000.1 kPa	23.0281 kg/m3
253.22 K, 1800.9 kPa	45.9785 kg/m3
263.31 K, 1000.6 kPa	21.8592 kg/m3
263.32 K, 500.07 kPa	10.4541 kg/m3
263.32 K, 1500.1 kPa	34.4562 kg/m3
263.32 K, 2000.2 kPa	48.7144 kg/m3
263.32 K, 2200.2 kPa	55.0401 kg/m3
263.32 K, 2500 kPa	65.4007 kg/m3
263.33 K, 100.03 kPa	2.02538 kg/m3
273.56 K, 100.01 kPa	1.94808 kg/m3
273.56 K, 100.02 kPa	1.95635 kg/m3
273.56 K, 500.01 kPa	10.0139 kg/m3
273.56 K, 1000 kPa	20.7952 kg/m3
273.56 K, 2000.3 kPa	45.5031 kg/m3
273.56 K, 2500.6 kPa	60.111 kg/m3
273.56 K, 3000 kPa	77.0441 kg/m3
273.56 K, 3200.5 kPa	84.7746 kg/m3
273.56 K, 3401.2 kPa	93.2811 kg/m3
283.51 K, 3000.3 kPa	70.8325 kg/m3
283.51 K, 4000.8 kPa	107.963 kg/m3
283.52 K, 100.06 kPa	1.8788 kg/m3
283.52 K, 999.98 kPa	19.8874 kg/m3
283.52 K, 2000 kPa	42.914 kg/m3
283.52 K, 4200.9 kPa	117.472 kg/m3
293.08 K, 100.15 kPa	1.81243 kg/m3
293.08 K, 100.16 kPa	1.8183 kg/m3
293.08 K, 2000 kPa	40.7832 kg/m3
293.08 K, 3000.4 kPa	66.2045 kg/m3
293.08 K, 4000.2 kPa	97.5691 kg/m3
293.08 K, 5000.2 kPa	140.798 kg/m3
293.08 K, 5501.3 kPa	173.325 kg/m3
293.09 K, 1000.2 kPa	19.1053 kg/m3

Liquid
Settings	mass density	vapor or sublimation pressure
233.07 K	1116.54 kg/m3 and 1116.44 kg/m3	1000.7 kPa and 1000.8 kPa
243.01 K	1076.52 kg/m3	1420.4 kPa and 1420.5 kPa
253.22 K	1031.59 kg/m3 and 1031.49 kg/m3	1974.2 kPa and 1974.5 kPa
263.31 K	981.93 kg/m3	2661.6 kPa
263.32 K	981.93 kg/m3	2661.9 kPa
273.55 K	924.89 kg/m3	3522.1 kPa
273.56 K	924.87 kg/m3	3522.4 kPa
283.51 K	858.57 kg/m3	4543.2 kPa
283.52 K	858.55 kg/m3	4543.6 kPa
293.08 K	774.28 kg/m3	5720.9 kPa
293.09 K	774.23 kg/m3	5721.4 kPa
